Measurements taken from patent US20100286079A1, “COMPOSITION COMPRISING COVALENT CONJUGATES OF CHITOSAN AND AN ACIDIC DRUG AND PARENTERAL ADMINISTRATION” (priority 2007, published 2010).

Assays:
[1] = single 200-mg oral dose, fasting subjects; cited from earlier work
[2] = Solubility in water / aqueous solution; conditions: as observed during preparation

Row | Structure (SMILES) | time of peak plasma levels after administration [1] | solubility in aqueous medium [2]
1 | CC(C)Cc1ccc(C(C)C(=O)O)cc1 (centres unmarked) [Ibuprofen] | about 1 hr | –
2 | CC(=O)O.CC(C)Cc1ccc(C(C)C(=O)O)cc1 (centres unmarked) [Ibuprofen ethanoate] | – | insoluble
